Data reported in patent publication US8921328B2, “E-selectin antagonists” (GlycoMimetics, Inc., priority 2010, dated 2014).

Target: T1, E-selectin/IgG construct (Homo sapiens, UniProt P16581)
T1 construct: fused on or other part: IgG Fc part (human, since it is captured by goat anti-human Fc antibody), fused on as a capture handle
T1 sequence (P16581 22-175 limits assumed): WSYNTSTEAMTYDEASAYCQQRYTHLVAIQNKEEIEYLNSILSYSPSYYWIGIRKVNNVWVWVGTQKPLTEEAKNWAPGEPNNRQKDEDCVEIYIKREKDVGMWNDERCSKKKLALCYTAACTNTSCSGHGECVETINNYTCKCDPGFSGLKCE
Assay: BIAcore surface plasmon resonance (SPR)-based assay, serial dilutions of the ligand (absolute KD)
Conditions: twofold serial dilutions, 600 s association/600 s dissociation, HBS-P + 20 mm calcium + DMSO 5% v/v, read-out: KD values (absolute binding affinities)
Experimental: The biological evaluation of the E-selectin antagonists was performed by surface plasmon resonance (SPR). For this purpose, an E-selectin/IgG construct was captured onto a BIAcore chip surface bearing covalently linked goat anti-human Fc specific antibody (Biacore Life Sciences, Uppsala, Sweden).
Evaluation of E-Selectin Antagonists with Surface Plasmon Resonance (SPR)-Based Assay
Ten twofold serial dilutions of the ligand were non-randomly injected. The E-selectin antagonists were diluted in running buffer (HBS-P supplemented with […] calcium and DMSO 5% v/v). Antagonist dilutions were injected with a 600 s association time and 600 s dissociation time at a flow rate of 20 μL/min over the reference and the active flow cell. […] In addition, to prevent the presence of residual traces of compound, a blank injection was performed between each injection of ligand dilution. DMSO calibration and double referencing were applied to correct bulk effects and other systematic artifacts (subtraction of reference surface and blank injection).

Kd: 110 nM
Compound: CC1CC(C(=O)NCCCN2CCN(CCCn3ccc4cc([N+](=O)[O-])ccc43)CC2)C[C@@H](O[C@@H]2OC(CO)[C@H](O)C(O[C@@H](CC3CCCCC3)C(=O)O)C2OC(=O)c2ccccc2)C1O[C@@H]1OC(C)[C@@H](O)C(O)C1O (stereo partly drawn) [Product 82, (1R,3R,4R,5S)-3-[2-O-Benzoyl-3-O-((1S)-1-carboxy-2-cyclohexyl-ethyl)-(β-D-galactopyranosyl)oxy]-4-[(α-L-fucopyranosyl)oxy]-5-methyl-N-(3-{1-[3-(5-nitro-1H-indol-1-yl)propyl]piperazin-1-yl}propyl)cyclohexanecarboxamide]
